Source: ChEMBL document CHEMBL1681682, “Synthesis and hydrolytic evaluation of acid-labile imine-linked cytotoxic isatin model systems” (Bioorg Med Chem, 2011)

Assay: Stability of the compound assessed as half life in 1M sodium acetate buffer of pH 4.5 at 37 degC
Type: physicochemical

SMILES	half-life
COC(=O)[C@H](CCCCNC(=O)Cc1cccc(N=C2C(=O)N(Cc3ccc(OC)cc3)c3c(Br)cc(Br)cc32)c1)NC(C)=O (mixture of isomers)	33 min
COC(=O)[C@H](CCCCNC(=O)Cc1ccc(N=C2C(=O)N(Cc3ccc(OC)cc3)c3c(Br)cc(Br)cc32)cc1)NC(C)=O (mixture of isomers)	23 min
